Each structure is given as a SMILES string. Where a SMILES comes first, the peptide text is derived from it. Bridges are numbered along the chain shown (N, C = ends). [ ]: non-standard residue; d: D form. NMePhe(3-Cl) = CN[C@@H](Cc1cccc(Cl)c1)C(=O)O; NMeW = CN[C@@H](Cc1c[nH]c2ccccc12)C(=O)O; Lys(N3) = [N-]=[N+]=NCCCC[C@H](N)C(=O)O; NMeY = CN[C@@H](Cc1ccc(O)cc1)C(=O)O; Sar = CNCC(=O)O

The target in one test is transferrin receptor (hTfR) (Homo sapiens, UniProt P02786). Briefly: Intermolecular interaction evaluation test between transferrin receptor (hTfR) and peptide by surface plasmon resonance (SPR). Format: binding.
Chain of transferrin receptor (hTfR) (P02786 whole entry): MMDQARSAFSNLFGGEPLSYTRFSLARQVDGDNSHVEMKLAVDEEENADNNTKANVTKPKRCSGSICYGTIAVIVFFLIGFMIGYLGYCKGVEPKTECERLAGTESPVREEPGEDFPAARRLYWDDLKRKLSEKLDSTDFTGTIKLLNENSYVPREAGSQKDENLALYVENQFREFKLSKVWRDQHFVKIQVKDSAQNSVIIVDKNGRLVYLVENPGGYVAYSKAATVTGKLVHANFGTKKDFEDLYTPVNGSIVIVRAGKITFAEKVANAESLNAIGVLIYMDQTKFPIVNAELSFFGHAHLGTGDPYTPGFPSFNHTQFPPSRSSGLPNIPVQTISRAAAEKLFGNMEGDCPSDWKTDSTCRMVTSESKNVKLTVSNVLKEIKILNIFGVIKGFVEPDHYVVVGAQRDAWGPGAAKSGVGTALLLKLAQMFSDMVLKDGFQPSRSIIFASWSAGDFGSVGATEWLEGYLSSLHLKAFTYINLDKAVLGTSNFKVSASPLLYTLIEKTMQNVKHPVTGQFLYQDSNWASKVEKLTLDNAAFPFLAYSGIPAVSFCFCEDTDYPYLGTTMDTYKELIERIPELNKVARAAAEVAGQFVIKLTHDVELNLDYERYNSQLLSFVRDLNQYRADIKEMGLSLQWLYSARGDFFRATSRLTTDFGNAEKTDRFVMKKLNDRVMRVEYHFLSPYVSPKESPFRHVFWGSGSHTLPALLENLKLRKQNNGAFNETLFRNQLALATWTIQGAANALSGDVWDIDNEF
Details: not given
Summed up:
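hTfR captured on Ni-NTA chip then amine-coupled; peptides run single-cycle kinetics at 5–100 nM in 10 mM HEPES pH 8.0, 150 mM NaCl, 0.05% Tween 20, 0.1% BSA, 1.0% DMSO. KD from least-squares curve fitting of sensorgrams.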
On the technique in general: SPR reads the build-up and loss of mass on a sensor chip optically.
As usually defined, the Kd is the constant that tells how readily two partners part at equilibrium. In turn, `CC[C@H](C)[C@@H]1NC(=O)[C@H](Cc2ccc(OC)cc2)NC(=O)[C@H](Cc2ccc(O)cc2)NC(=O)[C@H](CC(N)=O)NC(=O)[C@H](Cc2c[nH]c3ccccc23)N(C)C(=O)[C@H](C(C)C)NC(=O)[C@H](Cc2cccc(Cl)c2)N(C)C(=O)[C@H](C(C)C)NC(=O)[C@H](C)NC(=O)CSC[C@@H](C(=O)N(C)CC(=O)N(C)CC(=O)N(C)CC(N)=O)NC(=O)[C@H](Cc2ccc(O)cc2)N(C)C(=O)[C@H](Cc2ccccc2)NC(=O)[C@@H](CCCNC(=N)N)NC(=O)[C@H](CCCNC(=N)N)NC(=O)[C@H]([C@@H](C)CC)NC1=O` [compound 399] ({CH2CO}-AV[NMePhe(3-Cl)]V[NMeW]NYY(Me)IIR[dR]F[NMeY]C[Sar][Sar][Sar]-NH2; thioether N-15) gave a Kd of 1 to 100 nM.

`CC[C@H](C)[C@@H]1NC(=O)[C@H](Cc2ccc(OC)cc2)NC(=O)[C@H](Cc2ccc(O)cc2)NC(=O)[C@H](CC(N)=O)NC(=O)[C@H](Cc2c[nH]c3ccccc23)N(C)C(=O)[C@H](C(C)C)NC(=O)[C@H](Cc2cccc(Cl)c2)N(C)C(=O)[C@H](C(C)C)NC(=O)[C@H](C)NC(=O)CSC[C@@H](C(=O)NCC(=O)NCC(=O)NCC(=O)NCC(=O)N[C@@H](CO)C(=O)N[C@@H](CO)C(=O)N[C@@H](CS)C(N)=O)NC(=O)[C@H](Cc2ccc(O)cc2)N(C)C(=O)[C@H](Cc2ccccc2)NC(=O)[C@@H](CCCNC(=N)N)NC(=O)[C@H](CCCNC(=N)N)NC(=O)[C@H]([C@@H](C)CC)NC1=O` [compound 401]: the Kd was in the range of 1 to 100 nM.

Still in this test, the particulars now being: surface plasmon resonance, hTfR; read-out: KD value for hTfR by SPR (class symbol).
Regarding `CC[C@H](C)[C@@H]1NC(=O)[C@H](Cc2ccc(OC)cc2)NC(=O)[C@H](Cc2ccc(O)cc2)NC(=O)[C@H](CC(N)=O)NC(=O)[C@H](Cc2c[nH]c3ccccc23)N(C)C(=O)[C@H](C(C)C)NC(=O)[C@H](Cc2cccc(Cl)c2)N(C)C(=O)[C@H](C(C)C)NC(=O)[C@H](C)NC(=O)CSC[C@@H](C(N)=O)NC(=O)[C@H](Cc2ccc(O)cc2)N(C)C(=O)[C@H](CCC(=O)N[C@H](CCC(=O)O)C(=O)O)NC(=O)[C@@H](CCCNC(=N)N)NC(=O)[C@H](CCCNC(=N)N)NC(=O)[C@H]([C@@H](C)CC)NC1=O` [compound 391], the Kd lay in the range of 1 to 100 nM.

Regarding `CC[C@H](C)[C@@H]1NC(=O)[C@H](Cc2ccc(OC)cc2)NC(=O)[C@H](Cc2ccc(O)cc2)NC(=O)[C@H](CC(N)=O)NC(=O)[C@H](Cc2c[nH]c3ccccc23)N(C)C(=O)[C@H](C(C)C)NC(=O)[C@H](Cc2cccc(Cl)c2)N(C)C(=O)[C@H](C(C)C)NC(=O)[C@H](C)NC(=O)CSC[C@@H](C(N)=O)NC(=O)[C@H](Cc2ccc(O)cc2)N(C)C(=O)[C@H](Cc2ccc(Cl)cc2)NC(=O)[C@@H](CCCNC(=N)N)NC(=O)[C@H](CCCNC(=N)N)NC(=O)[C@H]([C@@H](C)CC)NC1=O` [compound 392], the Kd was in the range of 1 to 100 nM.

As to `CC[C@H](C)[C@@H]1NC(=O)[C@H](Cc2ccc(OC)cc2)NC(=O)[C@H](Cc2ccc(O)cc2)NC(=O)[C@H](CC(N)=O)NC(=O)[C@H](Cc2c[nH]c3ccccc23)N(C)C(=O)[C@H](C(C)C)NC(=O)[C@H](Cc2cccc(Cl)c2)N(C)C(=O)[C@H](C(C)C)NC(=O)[C@H](C)NC(=O)CSC[C@@H](C(N)=O)NC(=O)[C@H](Cc2ccc(O)cc2)N(C)C(=O)[C@H](Cc2cccc(Cl)c2)NC(=O)[C@@H](CCCNC(=N)N)NC(=O)[C@H](CCCNC(=N)N)NC(=O)[C@H]([C@@H](C)CC)NC1=O` [compound 393], the equilibrium dissociation constant (Kd) was 1 to 100 nM.

Consider `CC[C@H](C)[C@@H]1NC(=O)[C@H](Cc2ccc(OC)cc2)NC(=O)[C@H](Cc2ccc(O)cc2)NC(=O)[C@H](CC(N)=O)NC(=O)[C@H](Cc2c[nH]c3ccccc23)N(C)C(=O)[C@H](C(C)C)NC(=O)[C@H](Cc2cccc(Cl)c2)N(C)C(=O)[C@H](C(C)C)NC(=O)[C@H](C)NC(=O)CSC[C@@H](C(N)=O)NC(=O)[C@H](Cc2ccc(O)cc2)N(C)C(=O)[C@H](Cc2cccc(OC)c2)NC(=O)[C@@H](CCCNC(=N)N)NC(=O)[C@H](CCCNC(=N)N)NC(=O)[C@H]([C@@H](C)CC)NC1=O` [compound 394], for which the Kd was 1 to 100 nM.

`CC[C@H](C)[C@@H]1NC(=O)[C@H](Cc2ccc(OC)cc2)NC(=O)[C@H](Cc2ccc(O)cc2)NC(=O)[C@H](CC(N)=O)NC(=O)[C@H](Cc2c[nH]c3ccccc23)N(C)C(=O)[C@H](C(C)C)NC(=O)[C@H](Cc2cccc(Cl)c2)N(C)C(=O)[C@H](C(C)C)NC(=O)[C@H](C)NC(=O)CSC[C@H](C(N)=O)NC(=O)[C@H](Cc2ccc(O)cc2)N(C)C(=O)[C@H](Cc2ccccc2)NC(=O)[C@@H](CCCNC(=N)N)NC(=O)[C@H](CCCNC(=N)N)NC(=O)[C@H]([C@@H](C)CC)NC1=O` [compound 396]: the Kd is 1 to 100 nM.

`CC[C@H](C)[C@@H]1NC(=O)[C@H](Cc2ccc(OC)cc2)NC(=O)[C@H](Cc2ccc(O)cc2)NC(=O)[C@H](CC(N)=O)NC(=O)[C@H](Cc2c[nH]c3ccccc23)N(C)C(=O)[C@H](C(C)C)NC(=O)[C@H](Cc2cccc(Cl)c2)N(C)C(=O)[C@H](C(C)C)NC(=O)[C@H](C)NC(=O)CSC[C@@H](C(N)=O)NC(=O)[C@H](Cc2ccc(O)cc2)N(C)C(=O)[C@H](Cc2ccccc2)NC(=O)[C@@H](CCCNC(=N)N)NC(=O)[C@H](CCCNC(=N)N)NC(=O)[C@H]([C@@H](C)CC)NC1=O` [compound 397]: the equilibrium dissociation constant (Kd) lay within 1 to 100 nM.

Turning to `CC[C@H](C)[C@@H]1NC(=O)[C@H](Cc2ccc(OC)cc2)NC(=O)[C@H](Cc2ccc(O)cc2)NC(=O)[C@H](CC(N)=O)NC(=O)[C@H](Cc2c[nH]c3ccccc23)N(C)C(=O)[C@H](C(C)C)NC(=O)[C@H](Cc2cccc(Cl)c2)N(C)C(=O)[C@H](C(C)C)NC(=O)[C@H](C)NC(=O)CSC[C@@H](C(=O)NCCOCCOCCOCCOCCC(N)=O)NC(=O)[C@H](Cc2ccc(O)cc2)N(C)C(=O)[C@H](Cc2ccccc2)NC(=O)[C@@H](CCCNC(=N)N)NC(=O)[C@H](CCCNC(=N)N)NC(=O)[C@H]([C@@H](C)CC)NC1=O` [compound 400], the Kd lay within 1 to 100 nM.

As to `CC[C@H](C)[C@@H]1NC(=O)[C@H](Cc2ccc(OC)cc2)NC(=O)[C@H](Cc2ccc(O)cc2)NC(=O)[C@H](CC(N)=O)NC(=O)[C@H](Cc2c[nH]c3ccccc23)N(C)C(=O)[C@H](C(C)C)NC(=O)[C@H](Cc2cccc(Cl)c2)N(C)C(=O)[C@H](C(C)C)NC(=O)[C@H](C)NC(=O)CSC[C@@H](C(=O)N[C@H](CCC(=O)O)C(=O)NCC(=O)NCC(=O)NCC(=O)N[C@@H](CO)C(=O)N[C@@H](CO)C(=O)N[C@@H](CS)C(N)=O)NC(=O)[C@H](Cc2ccc(O)cc2)N(C)C(=O)[C@H](Cc2ccccc2)NC(=O)[C@@H](CCCNC(=N)N)NC(=O)[C@H](CCCNC(=N)N)NC(=O)[C@H]([C@@H](C)CC)NC1=O` [compound 402] ({CH2CO}-AV[NMePhe(3-Cl)]V[NMeW]NYY(Me)IIR[dR]F[NMeY]C[dE]GGGSSC-NH2; thioether N-15), the dissociation constant Kd was 1 to 100 nM.

Regarding `CC[C@H](C)[C@@H]1NC(=O)[C@H](Cc2ccc(OC)cc2)NC(=O)[C@H](Cc2ccc(O)cc2)NC(=O)[C@H](CC(N)=O)NC(=O)[C@H](Cc2c[nH]c3ccccc23)N(C)C(=O)[C@H](C(C)C)NC(=O)[C@H](Cc2cccc(Cl)c2)N(C)C(=O)[C@H](C(C)C)NC(=O)[C@H](C)NC(=O)CSC[C@@H](C(=O)NCC(=O)N[C@H](CCC(=O)O)C(=O)NCC(=O)N[C@H](CCC(=O)O)C(=O)N[C@@H](CO)C(=O)N[C@@H](CO)C(=O)N[C@@H](CS)C(N)=O)NC(=O)[C@H](Cc2ccc(O)cc2)N(C)C(=O)[C@H](Cc2ccccc2)NC(=O)[C@@H](CCCNC(=N)N)NC(=O)[C@H](CCCNC(=N)N)NC(=O)[C@H]([C@@H](C)CC)NC1=O` [compound 403], the dissociation constant (Kd) lay within 1 to 100 nM.

Take `CC[C@H](C)[C@@H]1NC(=O)[C@H](Cc2ccc(OC)cc2)NC(=O)[C@H](Cc2ccc(O)cc2)NC(=O)[C@H](CC(N)=O)NC(=O)[C@H](Cc2c[nH]c3ccccc23)N(C)C(=O)[C@H](C(C)C)NC(=O)[C@H](Cc2cccc(Cl)c2)N(C)C(=O)[C@H](C(C)C)NC(=O)[C@H](C)NC(=O)CSC[C@@H](C(=O)NCC(=O)N[C@H](CCC(=O)O)C(=O)NCC(=O)N[C@H](CCCCN)C(=O)N[C@@H](CO)C(=O)N[C@@H](CO)C(=O)N[C@@H](CS)C(N)=O)NC(=O)[C@H](Cc2ccc(O)cc2)N(C)C(=O)[C@H](Cc2ccccc2)NC(=O)[C@@H](CCCNC(=N)N)NC(=O)[C@H](CCCNC(=N)N)NC(=O)[C@H]([C@@H](C)CC)NC1=O` [compound 404] ({CH2CO}-AV[NMePhe(3-Cl)]V[NMeW]NYY(Me)IIR[dR]F[NMeY]CG[dE]G[dK]SSC-NH2; thioether N-15): the dissociation constant (Kd) fell in the range of 1 to 100 nM.

On to `CC[C@H](C)[C@@H]1NC(=O)[C@H](Cc2ccc(OC)cc2)NC(=O)[C@H](Cc2ccc(O)cc2)NC(=O)[C@H](CC(N)=O)NC(=O)[C@H](Cc2c[nH]c3ccccc23)N(C)C(=O)[C@H](C(C)C)NC(=O)[C@H](Cc2cccc(Cl)c2)N(C)C(=O)[C@H](C(C)C)NC(=O)[C@H](C)NC(=O)CSC[C@@H](C(=O)NCC(=O)N[C@@H](CCCCN=[N+]=[N-])C(N)=O)NC(=O)[C@H](Cc2ccc(O)cc2)N(C)C(=O)[C@H](Cc2ccccc2)NC(=O)[C@@H](CCCNC(=N)N)NC(=O)[C@H](CCCNC(=N)N)NC(=O)[C@H]([C@@H](C)CC)NC1=O` [compound 405] ({CH2CO}-AV[NMePhe(3-Cl)]V[NMeW]NYY(Me)IIR[dR]F[NMeY]CG[Lys(N3)]-NH2; thioether N-15), for which the equilibrium dissociation constant (Kd) lay within 1 to 100 nM.

For the molecule `CC[C@H](C)[C@@H]1NC(=O)[C@H](Cc2ccc(OC)cc2)NC(=O)[C@H](Cc2ccc(O)cc2)NC(=O)[C@H](CC(N)=O)NC(=O)[C@H](Cc2c[nH]c3ccccc23)N(C)C(=O)[C@H](C(C)C)NC(=O)[C@H](Cc2cccc(Cl)c2)N(C)C(=O)[C@H](C(C)C)NC(=O)[C@H](C)NC(=O)CSC[C@@H](C(=O)NCC(=O)NCC(=O)N[C@@H](CO)C(=O)NCC(=O)N[C@@H](CO)C(=O)NCC(=O)N[C@@H](CCCCN=[N+]=[N-])C(N)=O)NC(=O)[C@H](Cc2ccc(O)cc2)N(C)C(=O)[C@H](Cc2ccccc2)NC(=O)[C@@H](CCCCN)NC(=O)[C@H](CCCNC(=N)N)NC(=O)[C@H]([C@@H](C)CC)NC1=O` [compound 406] ({CH2CO}-AV[NMePhe(3-Cl)]V[NMeW]NYY(Me)IIR[dK]F[NMeY]CGGSGSG[Lys(N3)]-NH2; thioether N-15), the Kd was 1 to 100 nM.
